# Measurements published in patent publication US6737383B1, “Herbicidal oxadiazolidines” (priority 1999, dated 2004).
# Tests used:
# bamyardgrass = experiment: Test B flood test barnyardgrass; format: in vivo, Echinochloa crus-galli
# Method in brief: (§1)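 Each value is a visual injury score relative to controls, with 10 meaning complete control and 0 no effect. Evaluation took place twelve to sixteen days after the 2-leaf-stage plants were treated and kept in the greenhouse.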
# duck salad = experiment: Test B flood test duck salad; format: in vivo, Heteranthera limosa
# Method in brief: as §1
# pigweed = experiment: Test B pre/postemergence pigweed; format: in vivo, Amaranthus retroflexus
# Method in brief: (§2)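 Herbicidal effect was estimated by eye on a ten-point control scale after plants spent twelve to sixteen days in a greenhouse following soil or foliar treatment. Foliar sprays targeted plants at one to four leaves; all doses were formulated in a non-phytotoxic solvent with surfactant.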
# smallflower flatsedge = experiment: Test B flood test smallflower flatsedge; format: in vivo, Cyperus difformis
# Method in brief: as §1
# purple nutsedge = experiment: Test B pre/postemergence purple nutsedge; format: in vivo, Cyperus rotundus
# Method in brief: as §2
# bedstraw = experiment: Test B pre/postemergence bedstraw; format: in vivo, Galium aparine; conditions: Postemergence; for Plant response rating, Bedstraw: scale 0 to 10, 0 is no effect, 10 is complete control; for Bedstraw plant response rating: scale of 0 to 10 where 0 is no effect and 10 is complete control
# Method in brief: as §2
# giant foxtail = experiment: Test B pre/postemergence giant foxtail; format: in vivo, Setaria faberii
# Method in brief: as §2
# sugar beet = experiment: Test B pre/postemergence sugar beet; format: in vivo, Beta vulgaris
# Method in brief: as §2
# morningglory = experiment: Test B pre/postemergence morningglory; format: in vivo, Ipomoea hederacea
# Method in brief: as §2
# wheat = experiment: Test B pre/postemergence wheat; format: in vivo, Triticum aestivum
# Method in brief: as §2
# wild oat = experiment: Test B pre/postemergence wild oat; format: in vivo, Avena fatua
# Method in brief: as §2
# velvetleaf = experiment: Test B pre/postemergence velvetleaf; format: in vivo, Abutilon theophrasti
# Method in brief: as §2
# surinam grass = experiment: Test B pre/postemergence surinam grass; format: in vivo, Brachiaria decumbens
# Method in brief: as §2
# crabgrass = experiment: Test B pre/postemergence crabgrass; format: in vivo, Digitaria sanguinalis
# Method in brief: as §2
# corn = experiment: Test B pre/postemergence corn; format: in vivo, Zea mays
# Method in brief: as §2
# rice = experiment: Test B flood test rice; format: in vivo, Oryza sativa
# Method in brief: as §1
# cocklebur = experiment: Test B pre/postemergence cocklebur; format: in vivo, Xanthium strumarium
# Method in brief: as §2
# blackgrass = experiment: Test B pre/postemergence blackgrass; format: in vivo, Alopecurus myosuroides
# Method in brief: as §2
# rape = experiment: Test B pre/postemergence rape; format: in vivo, Brassica napus
# Method in brief: as §2
# soybean = experiment: Test B pre/postemergence soybean; format: in vivo, Glycine max
# Method in brief: as §2
# [1] = Rate 62 g/ha, flood test species, Pre-emergence, visual evaluation after twelve to sixteen days
# [2] = Rate 125 g/ha, under heading Pre-emergence, flood test species, visual evaluation after twelve to sixteen days
# [3] = Rate 250 g/ha, Pre-emergence, flood-test species, scale 0 to 10, 0 is no effect, 10 is complete control
# [4] = Rate 500 g/ha, Pre-emergence, flood test species, scale 0 to 10 (0 no effect, 10 complete control)
# [5] = Postemergence, Rate 250 g/ha, scale 0 to 10, 0 is no effect, 10 is complete control
# [6] = Postemergence, Rate 500 g/ha, scale of 0 to 10 where 0 is no effect and 10 is complete control
# [7] = Preemergence, Rate 62 g/ha, scale 0 to 10 (0 no effect, 10 complete control)
# [8] = Preemergence, Rate 125 g/ha, scale of 0 to 10 where 0 is no effect and 10 is complete control
# [9] = Preemergence, Rate 250 g/ha, scale 0 to 10, 0 is no effect, 10 is complete control
# [10] = Preemergence, Rate 500 g/ha, scale 0 to 10, 0 is no effect, 10 is complete control
# [11] = Postemergence, Rate 125 g/ha, scale 0 to 10, 0 is no effect, 10 is complete control
# [12] = Rate 62 g/ha, Postemergence, scale of 0 to 10 where 0 is no effect and 10 is complete control
# [13] = Preemergence, Rate 250 g/ha, scale of 0 to 10 where 0 is no effect and 10 is complete control
compound,measurement,setting,value
CC(C)N(C(=O)n1oc(=O)n(C(C)CCl)c1=O)c1ccc(F)cc1F (centres unmarked) [Compound 408],"Plant response rating, Barnyardgrass (0 to 10 scale, 0 is no effect, 10 is complete control)",bamyardgrass; [1],0
same,"Barnyardgrass plant response rating (0 to 10 scale, 0 is no effect, 10 is complete control)",bamyardgrass; [2],0
same,Barnyardgrass plant response rating,bamyardgrass; [3],0
same,Barnyardgrass plant response rating,bamyardgrass; [4],0
same,"Plant response rating, Ducksalad (0 to 10 scale, 0 is no effect, 10 is complete control)",duck salad; [1],0
same,"Ducksalad plant response rating (0 to 10 scale, 0 is no effect, 10 is complete control)",duck salad; [2],0
same,Ducksalad plant response rating,duck salad; [3],0
same,Ducksalad plant response rating,duck salad; [4],0
same,"Plant response rating, Redroot pigweed",pigweed; [5],0
same,Redroot pigweed plant response rating,pigweed; [6],7
same,"Plant response rating, Redroot pigweed",pigweed; [7],4
same,"Plant response rating, Redroot pigweed",pigweed; [8],6
same,Redroot pigweed plant response rating,pigweed; [9],10
same,Redroot pigweed plant response rating,pigweed; [10],10
same,"Plant response rating, S. Flatsedge (0 to 10 scale, 0 is no effect, 10 is complete control)",smallflower flatsedge; [1],0
same,"S. Flatsedge plant response rating (0 to 10 scale, 0 is no effect, 10 is complete control)",smallflower flatsedge; [2],0
same,S. Flatsedge plant response rating,smallflower flatsedge; [3],0
same,S. Flatsedge plant response rating,smallflower flatsedge; [4],0
same,"Plant response rating, Nutsedge",purple nutsedge; [5],2
same,Nutsedge plant response rating,purple nutsedge; [6],3
same,"Plant response rating, Nutsedge",purple nutsedge; [7],0
same,"Plant response rating, Nutsedge",purple nutsedge; [8],0
same,Nutsedge plant response rating,purple nutsedge; [9],0
same,Nutsedge plant response rating,purple nutsedge; [10],0
same,"Plant response rating, Bedstraw",bedstraw; Rate 125 g/ha,6
same,"Plant response rating, Bedstraw",bedstraw; Rate 250 g/ha,8
same,Bedstraw plant response rating,bedstraw; Rate 500 g/ha,9
same,Bedstraw plant response rating,bedstraw; Rate 62 g/ha,6
same,"Plant response rating, Giant foxtail",giant foxtail; [11],9
same,"Plant response rating, Giant foxtail",giant foxtail; [5],9
same,Giant foxtail plant response rating,giant foxtail; [6],9
same,"Plant response rating, Giant foxtail",giant foxtail; [7],10
same,"Plant response rating, Giant foxtail",giant foxtail; [8],10
same,Giant foxtail plant response rating,giant foxtail; [9],10
same,Giant foxtail plant response rating,giant foxtail; [10],10
same,Giant foxtail plant response rating,giant foxtail; [12],9
same,"Plant response rating, Sugarbeets",sugar beet; [5],0
same,Sugarbeets plant response rating,sugar beet; [6],6
same,"Plant response rating, Sugarbeets",sugar beet; [7],2
same,"Plant response rating, Sugarbeets",sugar beet; [8],4
same,Sugarbeets plant response rating,sugar beet; [9],8
same,Sugarbeets plant response rating,sugar beet; [10],8
same,"Plant response rating, Morningglory",morningglory; [5],7
same,Morningglory plant response rating,morningglory; [6],7
same,"Plant response rating, Morningglory",morningglory; [7],0
same,"Plant response rating, Morningglory",morningglory; [8],0
same,Morningglory plant response rating,morningglory; [9],0
same,Morningglory plant response rating,morningglory; [10],7
same,Wheat plant response rating,wheat; [6],2
same,"Plant response rating, Wheat",wheat; [7],0
same,"Plant response rating, Wheat",wheat; [8],0
same,Wheat plant response rating,wheat; [9],4
same,Wheat plant response rating,wheat; [10],7
same,Wild oats plant response rating,wild oat; [6],3
same,"Plant response rating, Wild oats",wild oat; [7],0
same,"Plant response rating, Wild oats",wild oat; [8],2
same,Wild oats plant response rating,wild oat; [9],5
same,Wild oats plant response rating,wild oat; [10],8
same,"Plant response rating, Velvetleaf",velvetleaf; [5],0
same,Velvetleaf plant response rating,velvetleaf; [6],4
same,"Plant response rating, Velvetleaf",velvetleaf; [7],0
same,"Plant response rating, Velvetleaf",velvetleaf; [8],1
same,Velvetleaf plant response rating,velvetleaf; [9],7
same,Velvetleaf plant response rating,velvetleaf; [10],7
same,"Plant response rating, B. signalgrass",surinam grass; [11],0
same,"Plant response rating, B. signalgrass",surinam grass; [5],0
same,B. signalgrass plant response rating,surinam grass; [6],5
same,"Plant response rating, B. signalgrass",surinam grass; [7],0
same,"Plant response rating, B. signalgrass",surinam grass; [8],2
same,B. signalgrass plant response rating,surinam grass; [13],4
same,B. signalgrass plant response rating,"surinam grass; Preemergence, Rate 500 g/ha, scale of 0 to 10 where 0 is no effect and 10 is complete control",7
same,B. signalgrass plant response rating,surinam grass; [12],0
same,"Plant response rating, Crabgrass",crabgrass; [11],4
same,"Plant response rating, Crabgrass",crabgrass; [5],8
same,Crabgrass plant response rating,crabgrass; [6],9
same,"Plant response rating, Crabgrass",crabgrass; [7],9
same,"Plant response rating, Crabgrass",crabgrass; [8],10
same,Crabgrass plant response rating,crabgrass; [9],10
same,Crabgrass plant response rating,crabgrass; [10],10
same,Crabgrass plant response rating,crabgrass; [12],3
same,"Plant response rating, Corn",corn; [11],0
same,"Plant response rating, Corn",corn; [5],0
same,Corn plant response rating,corn; [6],0
same,"Plant response rating, Corn",corn; [7],0
same,"Plant response rating, Corn",corn; [8],2
same,Corn plant response rating,corn; [9],4
same,Corn plant response rating,corn; [10],8
same,Corn plant response rating,corn; [12],0
same,"Plant response rating, Rice (0 to 10 scale, 0 is no effect, 10 is complete control)",rice; [1],0
same,"Rice plant response rating (0 to 10 scale, 0 is no effect, 10 is complete control)",rice; [2],0
same,Rice plant response rating,rice; [3],0
same,Rice plant response rating,rice; [4],0
same,"Plant response rating, Cocklebur",cocklebur; [11],0
same,"Plant response rating, Cocklebur",cocklebur; [5],0
same,Cocklebur plant response rating,cocklebur; [6],3
same,"Plant response rating, Cocklebur",cocklebur; [7],0
same,"Plant response rating, Cocklebur",cocklebur; [8],0
same,Cocklebur plant response rating,cocklebur; [9],0
same,Cocklebur plant response rating,cocklebur; [10],0
same,Cocklebur plant response rating,cocklebur; [12],0
same,"Plant response rating, Blackgrass",blackgrass; [11],2
same,"Plant response rating, Blackgrass",blackgrass; [5],9
same,Blackgrass plant response rating,blackgrass; [6],10
same,"Plant response rating, Blackgrass",blackgrass; [7],6
same,"Plant response rating, Blackgrass",blackgrass; [8],9
same,Blackgrass plant response rating,blackgrass; [13],9
same,Blackgrass plant response rating,blackgrass; [10],10
same,Blackgrass plant response rating,blackgrass; [12],0
same,Rape plant response rating,rape; [6],2
same,"Plant response rating, Rape",rape; [7],0
same,"Plant response rating, Rape",rape; [8],0
same,Rape plant response rating,rape; [9],6
same,Rape plant response rating,rape; [10],8
same,"Plant response rating, Soybean",soybean; [5],3
same,Soybean plant response rating,soybean; [6],4
same,"Plant response rating, Soybean",soybean; [7],0
same,"Plant response rating, Soybean",soybean; [8],0
same,Soybean plant response rating,soybean; [9],0
same,Soybean plant response rating,soybean; [10],0
